Results reported in patent US7691848B2, “Pyrrolobenzodiazepine arylcarboxamides and derivatives thereof as follicle-stimulating hormone receptor antagonists” (Wyeth, priority 2005, dated 2010).

How the values were obtained:
human FSH receptor = molecular target: T1, human FSH receptor (Homo sapiens, UniProt P23945); assay: Follicle-Stimulating Hormone Receptor-Dependent Cre-Luciferase Reporter Gene Assay (CHO FSH-R 6CRE-Luc cells); type: cell-based; conditions: for IC50: dose-response format, in presence of EC50 of purified human FSH; for inhibition at 30 µM: 2-dose format, concentration in parentheses 30 μM, inhibition of the response to EC50 of FSH
T1 construct: host or cells: CHO-K1 (CHO FSH-R 6CRE-Luc, 1D7 cells)
T1 sequence (P23945 18-695): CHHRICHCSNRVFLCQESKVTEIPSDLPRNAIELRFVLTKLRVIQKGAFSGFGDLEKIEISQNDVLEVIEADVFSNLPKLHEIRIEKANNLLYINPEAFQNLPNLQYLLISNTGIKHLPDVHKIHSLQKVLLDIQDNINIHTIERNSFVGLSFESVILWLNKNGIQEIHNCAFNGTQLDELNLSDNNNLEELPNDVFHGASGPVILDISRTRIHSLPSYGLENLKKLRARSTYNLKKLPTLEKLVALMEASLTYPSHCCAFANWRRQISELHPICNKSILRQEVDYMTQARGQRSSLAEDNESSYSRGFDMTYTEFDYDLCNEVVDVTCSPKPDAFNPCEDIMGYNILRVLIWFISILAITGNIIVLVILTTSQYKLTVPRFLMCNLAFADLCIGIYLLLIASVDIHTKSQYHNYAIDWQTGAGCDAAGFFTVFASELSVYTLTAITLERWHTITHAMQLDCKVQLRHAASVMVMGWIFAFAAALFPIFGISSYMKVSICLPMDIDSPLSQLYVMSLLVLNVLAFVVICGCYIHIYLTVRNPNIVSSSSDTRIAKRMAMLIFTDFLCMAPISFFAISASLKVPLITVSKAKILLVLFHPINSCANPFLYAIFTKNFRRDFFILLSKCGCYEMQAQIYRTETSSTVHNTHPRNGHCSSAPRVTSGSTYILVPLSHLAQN
Source text: Follicle-Stimulating Hormone Receptor-Dependent Cre-Luciferase Reporter Gene Assay for the Identification of Follicle-Stimulating Hormone (FSH) Antagonists
A Chinese hamster ovarian cell line that stably produces the human FSH receptor and a luciferase reporter gene regulated by cAMP response elements was used to identify and determine the relative potencies of human FSH receptor antagonists. See for example, Kelton, C. A., et al. Mol. Cell. Endocrinol. 89:141-151 (1992), Tilly, J. L., et al. Endocrinology 131:799-806(1992), and George, S. E., et al. J. Biomol. Screening 2:235-240 (1997).
Compound Vehicle: Stock compounds were solubilized in an appropriate vehicle, e.g., phosphate buffered saline (PBS) or dimethyl sulfoxide (DMSO), at 30 mM. The compounds were subsequently diluted in DMSO to working dilutions of 1 and 20 or 30 mM for 2-dose testing format and 1 μM-10 mM for dose-response format. The DMSO dilutions were diluted 500-fold in sterile growth medium [D-MEM/F-12 (GIBCO/BRL; Grand Island, NY) containing 15 mM HEPES, 2 mM 1-glutamine, pyridoxine hydrochloride, phenol red and 5% FetalClone® II (HyClone Laboratories, Inc; Logan, Utah), 0.2% DMSO, 100 units penicillin G/ml, and 100 μg streptomycin sulfate/ml (GIBCO/BRL)]. The concentration of the vehicle in each of the compound dilutions was the same.
Positive Controls: Purified human FSH (>98%) was purchased from Cortex Biochem, Inc. (San Leandro, Calif.) and 3-[(2S*,5R*)-5-{[2-(1H-Indol-3-yl)-ethylcarbamoyl]-methyl}-4-oxo-2-(5-phenylethynyl-thiophen-2-yl)-thiazolidin-3-yl]-benzamide (an FSH-R thiazolidinone antagonist) was prepared by processes described by R. A. Scheuerman et al. in U.S. Pat. No. 6,426,357 (Affymax).
The CHO FSH-R 6CRE-Luc cells (1D7 cells) were obtained from Affymax (Palo Alto, Calif.). These Chinese hamster ovary cells (CHO-K1) were engineered genetically to stably express the recombinant human FSH receptor gene and a luciferase reporter gene under the regulation of 6 copies of a cAMP response element. The cells were plated one day prior to treatment into 96-well white opaque plates at a density of 50,000 cells/100 μl/well in growth medium. On the day of treatment, the growth medium was removed from the wells by aspiration and 50 μl of fresh growth medium was added to each well. The cells were incubated at 37° C. in a humidified incubator with 5% CO2/95% air.
The treated cells were incubated for 4 hours at 37° C. in a humidified incubator with 5% CO2/95% air. At the end of the incubation period, luciferase activity was measured by chemiluminescence using a commercially available kit (LucScreen, Tropix, Inc., Bedford, Mass.) according to the manufacturer's specifications, except that Buffer 1 and Buffer 2 were mixed together in equal proportion prior to the addition of 100 μl of the combined reagents to each well. Chemiluminescence was detected using a luminometer (EG & G Berthold Microlumat LB 96 P, Wallac, Gaithersburg, Md.) with chemiluminescence measured for 1 sec/well. Background luminescence was measured for each well prior to the addition of the LucScreen reagent.
In the 96-well 2-dose format, each compound was tested in duplicate at each dose. […] One plate was used to test a maximum of 22 compounds.
The EC50 of purified human FSH alone was tested in triplicate with each test compound. The doses chosen to test each compound were extrapolated from the initial 2-dose screening process. Along with the test compounds, purified human FSH also was tested in a dose response (0.03, 0.1, 0.3, 1, 3, 10, and 30 ng/ml) for a positive control and quality control. One plate was used for 3 test compounds and the FSH positive control.
Luciferase activity is expressed as relative light units/sec/well. Luciferase activity in antagonist was compared to the appropriate negative and positive controls. For 2-dose testing, results are reported as luciferase activity and are expressed as percent inhibition of the response obtained from the EC50 of FSH.

Structure (SMILES)	IC50 (human FSH receptor) [µM]	melting point [°C]	inhibition at 30 µM (human FSH receptor) [%]
O=C(NCc1ccc(Cl)c(Cl)c1)c1ccc2n1Cc1ccccc1N(C(=O)CSc1ccc(Br)cc1)C2 [Example 81, 10-{[(4-BROMOPHENYL)THIO]ACETYL}-N-(3,4-DICHLOROBENZYL)-10,11-DIHYDRO-5H-PYRROLO[2,1-C][1,4]BENZODIAZEPINE-3-CARBOXAMIDE]	> 30	150	–
Cc1ccccc1-c1ccc(C(=O)N2Cc3ccc(C(=O)NCc4ccc(C(=O)c5ccccc5)cc4)n3Cc3ccccc32)cc1C [Example 88]	> 30	148 to 150	–
O=C(NCc1ccc2c(c1)OCO2)c1ccc2n1Cc1ccccc1N(C(=O)CSc1ccc(Br)cc1)C2 [Example 84]	–	154 to 155	27
COc1cc(C(=O)N2Cc3ccc(C(=O)NCCc4ccc(C)cc4)n3Cc3ccccc32)ccc1-c1ccccc1C [Example 48]	> 30	190 to 192	–
Cc1ccc(CCNC(=O)c2ccc3n2Cc2ccccc2N(C(=O)c2ccc(-c4ccccc4C)c(C)c2)C3)cc1 [Example 29]	–	161 to 163	52
Cc1ccc(CNC(=O)c2ccc3n2Cc2ccccc2N(C(=O)COc2ccc(Cl)cc2)C3)cc1 [Example 70, 10-[(4-CHLOROPHENOXY)ACETYL]-N-(4-METHYLBENZYL)-10,11-DIHYDRO-5H-PYRROLO[2,1-C][1,4]BENZODIAZEPINE-3-CARBOXAMIDE]	–	174 to 176	17
COc1ccccc1-c1ccc(C(=O)N2Cc3ccc(C(=O)N[C@H](CO)c4ccccc4)n3Cc3ccccc32)cc1 [Example 5]	–	196 to 197	14
COc1cc(C(=O)N2Cc3ccc(C(=O)NC(C)c4ccccc4)n3Cc3ccccc32)ccc1-c1ccccc1C (centres unmarked) [Example 58]	> 30	211	–
COC(=O)c1cc(NC(=O)c2ccc3n2Cc2ccccc2N(C(=O)COc2ccc(Cl)cc2)C3)cc(C(=O)OC)c1 [Example 98, DIMETHYL 5-[({10-[(4-CHLOROPHENOXY)ACETYL]-10,11-DIHYDRO-5H-PYRROLO[2,1-C][1,4]BENZODIAZEPIN-3-YL}CARBONYL)AMINO]ISOPHTHALATE]	> 30	213 to 217	–
CCOC(=O)c1cccc(NC(=O)c2ccc3n2Cc2ccccc2N(C(=O)COc2ccc(Cl)cc2)C3)c1 [Example 99, ETHYL 3-[({10-[(4-CHLOROPHENOXY)ACETYL]-10,11-DIHYDRO-5H-PYRROLO[2,1-C][1,4]BENZODIAZEPIN-3-YL}CARBONYL)AMINO]BENZOATE]	> 30	179 to 180	–
O=C(NCc1ccc2c(c1)OCO2)c1ccc2n1Cc1ccccc1N(C(=O)COc1ccc(Cl)cc1)C2 [Example 69]	–	168 to 169	21
O=C1c2cc(Br)ccc2-c2ccc(NC(=O)c3ccc4n3Cc3ccccc3N(C(=O)COc3ccc(Cl)cc3)C4)cc21 [Example 103, N-(7-BROMO-9-OXO-9H-FLUOREN-2-YL)-10-[(4-CHLOROPHENOXY)ACETYL]-10,11-DIHYDRO-5H-PYRROLO[2,1-C][1,4]BENZODIAZEPINE-3-CARBOXAMIDE]	> 30	277 to 278	–
Cc1cccc(CNC(=O)c2ccc3n2Cc2ccccc2N(C(=O)COc2ccc(Cl)cc2)C3)c1 [Example 71, 10-[(4-CHLOROPHENOXY)ACETYL]-N-(3-METHYLBENZYL)-10,11-DIHYDRO-5H-PYRROLO[2,1-C][1,4]BENZODIAZEPINE-3-CARBOXAMIDE]	–	130 to 131	7
COc1cc(C(=O)N2Cc3ccc(C(=O)NCC(c4ccccc4)c4ccccc4)n3Cc3ccccc32)ccc1-c1ccccc1C [Example 50]	> 30	129 to 132	–
COc1cc(C(=O)N2Cc3ccc(C(=O)NCc4ccccc4C)n3Cc3ccccc32)ccc1-c1ccccc1C [Example 41, 10-[(2-METHOXY-2′-METHYL-1,1′-BIPHENYL-4-YL)CARBONYL]-N-(2-METHYLBENZYL)-10,11-DIHYDRO-5H-PYRROLO[2,1-C][1,4]BENZODIAZEPINE-3-CARBOXAMIDE]	–	204	62
COc1ccc(CCNC(=O)c2ccc3n2Cc2ccccc2N(C(=O)c2ccc(-c4ccccc4C)c(OC)c2)C3)cc1OC [Example 52, N-[2-(3,4-DIMETHOXYPHENYL)ETHYL]-10-[(2-METHOXY-2′-METHYL-1,1′-BIPHENYL-4-YL)CARBONYL]-10,11-DIHYDRO-5H-PYRROLO[2,1-C][1,4]BENZODIAZEPINE-3-CARBOXAMIDE]	> 30	150 to 154	–
CCOC(=O)c1ccc(NC(=O)c2ccc3n2Cc2ccccc2N(C(=O)COc2ccc(Cl)cc2)C3)cc1 [Example 96, ETHYL 4-[({10-[(4-CHLOROPHENOXY)ACETYL]-10,11-DIHYDRO-5H-PYRROLO[2,1-C][1,4]BENZODIAZEPIN-3-YL}CARBONYL)AMINO]BENZOATE]	> 30	199 to 201	–
O=C(NCC(O)c1ccccc1)c1ccc2n1Cc1ccccc1N(C(=O)COc1ccc(Cl)cc1)C2 (centres unmarked) [Example 73]	25.1	157 to 158	–
COc1cc(C(=O)N2Cc3ccc(C(=O)NCCCCc4ccccc4)n3Cc3ccccc32)ccc1-c1ccccc1C [Example 49, 10-[(2-METHOXY-2′-METHYL-1,1′-BIPHENYL-4-YL)CARBONYL]-N-(4-PHENYLBUTYL)-10,11-DIHYDRO-5H-PYRROLO[2,1-C][1,4]BENZODIAZEPINE-3-CARBOXAMIDE]	> 30	154 to 159	–
Cc1ccccc1-c1ccc(C(=O)N2Cc3ccc(C(=O)NCCCc4ccccc4)n3Cc3ccccc32)cc1C [Example 25]	–	183 to 184	59
COc1cc(C(=O)N2Cc3ccc(C(=O)NCc4ccc(N(C)C)cc4)n3Cc3ccccc32)ccc1-c1ccccc1C [Example 57, N-[4-(DIMETHYLAMINO)BENZYL]-10-[(2-METHOXY-2′-METHYL-1,1′-BIPHENYL-4-YL)CARBONYL]-10,11-DIHYDRO-5H-PYRROLO[2,1-C][1,4]BENZODIAZEPINE-3-CARBOXAMIDE]	> 30	148 to 150	–
Cc1ccccc1-c1ccc(C(=O)N2Cc3ccc(C(=O)NCC(c4ccccc4)c4ccccc4)n3Cc3ccccc32)cc1C [Example 90]	> 30	126 to 128	–
